# Data published in patent publication US20130253048A1, “Pharmaceutical Composition for Promoting Osteogenesis Containing Axial-equatorial Aryl-oriented Furofuran-type Lignan, and Pharmaceutical Preparation, Functional Food Product, and Health Food Product Comprising Composition” (ERINA CO., INC., priority 2010, published 2013).
# Marks after values point to notes of the source that are not given here.
# Experiments:
# [1] = test system: osteopenia mouse caused by sRANKL administration; assay: Osteopenia mouse caused by sRANKL administration, femur pQCT; format: in vivo; details: for Bone density of the cancellous bone, relative value / Bone density of the cortical bone, relative value / Bone density of whole bone, relative value: RANKL group = 100.0; for Bone density of the cancellous bone / Bone density of the cortical bone / Bone density of whole bone: day 4 to 13; for Bone density of whole bone: right femur, pQCT
# Method: C57BL/6NCrlCrlj mice (6-week-age, female) were purchased from Oriental Yeast Co., Ltd. and kept to be acclimatized under the conditions of 12 hour light/dark cycle, 23±3 degree centigrade, and humidity 55±5% for 7 days. Two mice were in a cage, and the animal bedding was changed twice a week, and all fresh animal bedding was used at all times. As the feed, CRF-1 (Oriental Yeast Co., Ltd.), and deionized water as the drinking water were freely taken.
# After the acclimatization, these mice were randomly divided into 4 groups (8 mice per group), sRANKL administration group and fargesin administration groups. Fargesin administration groups had 0.2 mg/kg/day administration group (it is referred to as “Far 0.2”, hereinbelow), 2 mg/kg/day administration group (it is referred to as “Far 2” herein below), and 20 mg/kg/day administration group (it is referred to as “Far 20” herein below). sRANKL (1 mg/kg/day, i.p) was administered to all mice on the first day and the second day from test start to cause osteopenia experimentally.
# From the 4th day to 13th day after the test start, distilled water or the test compounds shown in the following Table 10 were daily administered to the mice in each group.
# After the administration period was finished and the experiment was completed, the femurs were removed in the same way as employed in Example 6 to be excised to evaluate the bone density. Body weight of the test animals and feed intake by the test animals were measured twice a week during the administration period.
# The experiments were performed as the same as done in Example 6, right femur chosen from the obtained femurs was used for measurement of the bone density.
# The whole bone density, the cancellous bone density, the cortical bone density, the boundary length of the cortical bone adventitia, the length of the cortical bone endosteum, and the bone strength were measured at the site of −0.6 mm from the growth plate of the bone (see FIG. 3A).
# [2] = test system: MC3T3-E1 cells; assay: Calcification of the osteoblast (ALP activity, alizarin red) in MC3T3-E1; format: cell-based, mouse
# Method: MC3T3-E1 cells as the same as those used in Example 4 were used. In addition, 50 μg/ml of L-ascorbic acid and 10 mM β-Glycerophosphate (both from Sigma-Aldrich Japan Co. LLC.) were added to the basal medium employed in the Example 3 was used. Fargesin prepared in the Example 1 was added to the medium the concentration at 2 to 80 μM.
# MC3T3-E1 was inoculated in each well of the 96 well plates at 4,000 cells/well, and then the plate was pre-cultured by using only basal mediums under the condition of 5% CO2 and 37 degree centigrade for 2 days. After that, the medium was exchanged to the medium containing 50 μg/ml of L-ascorbic acid, 10 mM β-Glycerophosphate, and fargesin, and it was incubated under the condition of 5% CO2 and 37 degree centigrade for 5 days. After the termination of the incubation, the measurement of ALP activity and the differentiated cells were observed as the same as those in Example 3.
# Mineral deposition was stained by using 1% alizarin red observed as the bone calcification (Wako Pure Chemical Industries, Ltd.) according to the conventional method, and then it was observed as the bone calcification.
# [3] = sRANKL-treated mice, Far 0.2: 0.2 mg/kg/day p.o.
# [4] = sRANKL-treated mice, Far 2: 2 mg/kg/day p.o.
# [5] = sRANKL-treated mice, Far 20: 20 mg/kg/day p.o.
smiles,measurement,setting,value
"COc1ccc([C@@H]2OC[C@H]3[C@@H]2CO[C@@H]3c2ccc3c(c2)OCO3)cc1OC [fargesin, Fargesin]","Bone density of the cancellous bone, relative value",[1]; Far 0.2: 0.2 mg/kg/day p.o.,(100.7)
same,"Bone density of the cortical bone, relative value",[1]; Far 0.2: 0.2 mg/kg/day p.o.,(98.7)
same,"Bone density of whole bone, relative value",[1]; Far 0.2: 0.2 mg/kg/day p.o.,99.5
same,"Bone density of the cancellous bone, relative value",[1]; Far 2: 2 mg/kg/day p.o.,(104.0)
same,"Bone density of the cortical bone, relative value",[1]; Far 2: 2 mg/kg/day p.o.,(98.9)
same,"Bone density of whole bone, relative value",[1]; Far 2: 2 mg/kg/day p.o.,99.5
same,"Bone density of the cancellous bone, relative value",[1]; Far 20: 20 mg/kg/day p.o.,(129.4)*
same,"Bone density of the cortical bone, relative value",[1]; Far 20: 20 mg/kg/day p.o.,(98.6)
same,"Bone density of whole bone, relative value",[1]; Far 20: 20 mg/kg/day p.o.,110
same,"bone strength, Polar coordinates strength (SSI)","[1]; sRANKL-treated mice, 0.2 to 20 mg/kg/day p.o.",trend that the bone strength was improved
same,Bone density of the cancellous bone,[1]; [3],261.64 ± 17.92 mg/mL
same,Bone density of the cortical bone,[1]; [3],797.40 ± 6.12 mg/mL
same,Bone density of whole bone,[1]; [3],484.33 ± 11.09 mg/mL
same,Bone density of the cancellous bone,[1]; [4],270.30 ± 20.64 mg/mL
same,Bone density of the cortical bone,[1]; [4],798.60 ± 4.56 mg/mL
same,Bone density of whole bone,[1]; [4],487.30 ± 16.36 mg/mL
same,Bone density of the cancellous bone,[1]; [5],336.25 ± 13.50 mg/mL
same,Bone density of the cortical bone,[1]; [5],796.33 ± 3.89 mg/mL
same,Bone density of whole bone,[1]; [5],532.69 ± 8.06 mg/mL
same,"Mineral deposition (calcification), alizarin red staining","[2]; 60 to 80 μM, MC3T3-E1",increased mineral deposition side
same,activity at 2 µM,"[2]; Mus musculus, 120 h, 2 μM, MC3T3-E1 with L-ascorbic acid and β-Glycerophosphate, 5 days, negative control = 100",93.3 ± 2.6%
same,activity at 6 µM,"[2]; Mus musculus, 120 h, 6 μM, MC3T3-E1 with L-ascorbic acid and β-Glycerophosphate, 5 days, negative control = 100",92.8 ± 1.6%
same,activity at 20 µM,"[2]; Mus musculus, 120 h, 20 μM, MC3T3-E1 with L-ascorbic acid and β-Glycerophosphate, 5 days, negative control = 100",107 ± 3.8%
same,activity at 60 µM,"[2]; Mus musculus, 120 h, 60 μM, MC3T3-E1 with L-ascorbic acid and β-Glycerophosphate, 5 days, negative control = 100",173 ± 13.7%
same,activity at 80 µM,"[2]; Mus musculus, 120 h, 80 μM, MC3T3-E1 with L-ascorbic acid and β-Glycerophosphate, 5 days, negative control = 100",172 ± 12.2%
